Test results: PubChem BioAssay (NCI)
Several values for one entry are separate records, joined by “and”; a condition that tells them apart may be missing. Equal entries are not always repeated.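 Where inhibition never reached the appropriate level, the endpoint shown equals the highest concentration tested. Otherwise, values were interpolated linearly from a five-concentration, 48-hour dose response in 96-well plates. GI50 = concentration required for 50% inhibition of growth. TGI: concentration producing complete growth inhibition.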

Assays:
Assay in all cases: NCI-60 cell line screen, 48 h
ACHN renal = system: ACHN renal
CCRF-CEM leukemia = system: CCRF-CEM leukemia
HL-60(TB) leukemia = system: HL-60(TB) leukemia
HOP-62 NSCLC = system: HOP-62 NSCLC
M14 melanoma = system: M14 melanoma
NCI-H460 lung = system: NCI-H460 lung
NCI-H522 lung = system: NCI-H522 lung
OVCAR-4 ovarian = system: OVCAR-4 ovarian
SF-295 CNS = system: SF-295 CNS
SF-539 CNS = system: SF-539 CNS

Row | SMILES | GI50 (ACHN renal) [µM] | TGI (ACHN renal) | TGI (CCRF-CEM leukemia) | TGI (HL-60(TB) leukemia) [µM] | GI50 (HOP-62 NSCLC) [µM] | GI50 (M14 melanoma) [µM] | GI50 (NCI-H460 lung) [µM] | GI50 (NCI-H522 lung) [µM] | TGI (NCI-H522 lung) | GI50 (OVCAR-4 ovarian) [µM] | TGI (OVCAR-4 ovarian) | GI50 (SF-295 CNS) [µM] | GI50 (SF-539 CNS) [µM] | TGI (HOP-62 NSCLC) [µM] | TGI (M14 melanoma) [µM] | TGI (NCI-H460 lung) [µM] | TGI (SF-295 CNS) [µM] | TGI (SF-539 CNS) [µM]
1 | CCCC(=O)Nc1cc(C(=O)N2C[C@H]3C[C@@]34C2=CC(=O)c2[nH]cc(C)c24)n(COC)c1 | 0.0888 | 2.5 µM and 0.342 µM | 0.105 µM and 0.245 µM | 0.23 | 0.104 | 0.167 | 0.135 | 0.0115 | 0.261 µM and 0.117 µM | 0.239 | 4.76 µM and 0.626 µM | 0.229 | 0.118 | – | – | – | – | –
2 | Nc1nc(SCc2ccccc2Cl)c2ncn(C3OC(CO)C(O)C3O)c2n1 (stereo not drawn) | – | > 100 µM | > 100 µM | > 100 | – | – | – | – | > 100 µM | – | > 100 µM | – | – | > 100 | > 100 | > 100 | > 100 | > 100
3 | Cc1nn2c(=O)c([N+](=O)[O-])c(/C=C/c3ccc(F)cc3)nc2s1 | – | 20.6 µM | 23.5 µM | 18.1 | – | – | – | – | 18 µM | – | 19.5 µM | – | – | 22.9 | 16.4 | 22.9 | 22.8 | 17.9
4 | Cc1sc(/N=C/C2=C(O)CC(C)(C)CC2=O)nc1-c1ccccc1 | – | > 100 µM | > 100 µM | 5.93 | – | – | – | – | > 100 µM | – | > 100 µM | – | – | > 100 | > 100 | > 100 | > 100 | > 100
5 | CC(=O)O[C@H]1[C@@H](N2CCOCC2)C[C@H]2[C@@H]3CC=C4C[C@@H](N5CCCC5)CC[C@]4(C)[C@H]3CC[C@@]21C | – | > 100 µM | > 100 µM | > 100 | – | – | – | – | > 100 µM | – | > 100 µM | – | – | > 100 | > 100 | > 100 | > 100 | > 100
6 | C[N+](C)(CCNc1ccc(NCC[N+](C)(C)Cc2ccc([N+](=O)[O-])cc2)c2c1C(=O)c1c(O)ccc(O)c1C2=O)Cc1ccc([N+](=O)[O-])cc1 | – | > 50 µM | > 50 µM | > 50 | – | – | – | – | > 50 µM | – | > 50 µM | – | – | > 50 | > 50 | > 50 | > 50 | > 50
7 | COC(=O)c1ccccc1C1CN=NC12Cc1ccc(C)cc1C2=O (stereo not drawn) | – | > 100 µM | > 100 µM | > 100 | – | – | – | – | > 100 µM | – | > 100 µM | – | – | > 100 | > 100 | > 100 | > 100 | > 100
8 | Cc1c(C#N)c2nnn(-c3cccc(Cl)c3)c(=O)n2c1-c1ccccc1 | – | > 100 µM | > 100 µM | > 100 | – | – | – | – | 8.59 µM | – | > 100 µM | – | – | 7.81 | > 100 | > 100 | 4.98 | 10.4
9 | COC(=O)CN1CCN(c2cccc3c2CCCC3)CC1 | – | > 100 µM | > 100 µM | > 100 | – | – | – | – | > 100 µM | – | > 100 µM | – | – | > 100 | > 100 | > 100 | > 100 | > 100
10 | Nc1nc(Sc2ccc([N+](=O)[O-])c3nonc23)c2[nH]cnc2n1 | – | 10.4 µM | 2.13 µM | 4.86 | – | – | – | – | 2.44 µM | – | 15.9 µM | – | – | 18.1 | 8.72 | 10.7 | 16.1 | 14.8
11 | Clc1ccc(-c2cn3c(nc4ccccc43)c(-c3ccccc3)n2)cc1 | – | 95.9 µM | > 100 µM | > 100 | – | – | – | – | 43.3 µM | – | 25.2 µM | – | – | 24.6 | > 87.4 | > 57.4 | 28.3 | > 69
12 | CC(=O)N[C@@H](Cc1ccc(O)cn1)C(=O)NCc1ccc(Cl)cc1 | – | > 100 µM | > 100 µM | > 100 | – | – | – | – | > 100 µM | – | > 100 µM | – | – | > 100 | > 100 | > 100 | > 100 | > 100
13 | O=c1cc(NNc2cccc3ccccc23)[nH]c(=O)[nH]1 | – | 30.3 µM | 81.9 µM | 7.99 | – | – | – | – | 28.7 µM | – | 31.2 µM | – | – | 30.9 | 29.8 | 43.5 | 31.4 | 29
14 | NC(CCC(=O)c1ccccn1)C(=O)O (stereo not drawn) | – | > 100 µM | > 100 µM | > 100 | – | – | – | – | > 100 µM | – | > 100 µM | – | – | > 100 | > 100 | > 100 | > 100 | > 100
15 | CC(=O)c1csc2c1C(=O)c1ccccc1C2=O | – | 4.57 µM | 4.01 µM | 19.5 | – | – | – | – | 4.1 µM | – | 18.3 µM | – | – | 4.36 | 2.65 | 5 | 3 | 5.65
16 | CC(=O)OCC1OC(OCCCOP(=O)(OCCC#N)OCC2OC(n3cnc4c(N)ncnc43)C(OC(=O)c3ccccc3)C2OC(=O)c2ccccc2)C(OC(C)=O)C(OC(C)=O)C1OC(C)=O (stereo not drawn) | – | > 100 µM | > 100 µM | > 100 | – | – | – | – | > 100 µM | – | > 100 µM | – | – | > 100 | > 100 | > 100 | > 100 | > 100
